# Source: patent US20220081446A1, “CRYSTAL FORM OF 1,2,3-TRIAZOLO[1,5-A]PYRAZINES DERIVATIVE AND PREPARATION METHOD FOR CRYSTAL FORM” (Jiangsu Hengrui Medicine Co., Ltd., priority 2019, published 2022)
# Key:
# [1] = DVS (dynamic vapor sorption) hygroscopicity test; type: physicochemical
# Procedure: According to the definition of hygroscopicity characteristics and hygroscopic weight gain in “9103 guiding principles for hygroscopicity of drugs” in the fourth volume of Chinese Pharmacopoeia (2015 Edition),
# DVS indicates dynamic vapor sorption: the determination is carried out by SMS DVS Advantage at 25° C. with a humidity change of 50%-95%-0%-95%-50%, and the step of 10% (the last step is 5%) (The specific range of humidity is subject to the corresponding spectrum, and the methods listed here are those used in most cases), and the judgment standard is that dm/dt is not more than 0.02%.
# [2] = Long term/accelerated stability; type: physicochemical
# Procedure: The crystal form A (Example 5) was placed at 25° C., 60% RH and 40° C., 75% RH to investigate its stability
# [3] = Investigation of influencing factors (stability under heating, illumination, high humidity); type: physicochemical
# Procedure: The sample of the crystal form A (Example 5) was spread out, and its stability was investigated under the conditions of heating (40° C., 60° C.), illumination (4500 Lux) and high humidity (RH 75%, RH 90%). The sampling was investigated over 30 days.
# HBV capsid protein = HBV capsid protein (Hepatitis B virus genotype D subtype ayw, UniProt P03146); conditions: from PCT/CN2018/097170; cited from earlier work
# HepG2 cells [4] = conditions: read-out: CC50 (proliferation inhibition), 72 hours, CellTiter-Glo
# Procedure: HepG2 cells taken in logarithmic growth stage were prepared into the cell suspension through digestion with trypsin, and then the suspension was cultured with 6,000 cells/well in 96-well plate (96-well White/Clear Flat Bottom plate) under 5% carbon dioxide at 37° C. for 16-20 hours. On the second day, the compound was dissolved in pure DMSO with the concentration of 20 mM, and then the gradient dilution of the compound was carried out by using Automatic pipetting workstation (Bravo) with the dilution times of 3, where there were 8 concentration points for each compound, and the control well was DMSO; next, the compound with each concentration treated by DMSO was diluted 200 times using EMEM (containing 10% FBS) medium. The cell culture plate inoculated on the first day was taken out, and then the medium in the well plate was sucked out by using the negative pressure suction device. Into each well, the prepared medium containing each concentration of compound was added respectively, which was cultured with 100 μl/well at 37° C. for 72 hours. On the fifth day, the 96-well cell plate was taken out, and the freshly prepared CellTiter Glo was added into each well with 100 μL/well, left to stand for 5-10 minutes, sealed for the bottom of the 96-well plate with a white back cover film (PerkinElmer), placed into the Microplate Reader, and measured for the Luminescence signal by the reader.
# HepG2 cells [5] = conditions: from PCT/CN2018/097170; cited from earlier work
# [6] = test system: HBV DNA replication in HepG2.2.15 cells; experiment: In vitro anti-HBV activity test (quantitative analysis of intracellular HBV DNA); type: cell-based; conditions: HBV DNA by quantitative PCR
# From the text: Test Example 1: In Vitro Anti-HBV Activity Test (Quantitative Analysis of Intracellular HBV DNA)
# HepG2.2.15 cells were stable expression cell lines integrated with HBV genome, which can be secreted out of cells through replication, transcription, translation and packaging into virus particles with HBV DNA. In this study, the quantitative PCR method was used to quantitatively analyze the HBV DNA produced by the proliferation of HepG2.2.15 in vitro, thus determining the activity of the compounds in the present disclosure to inhibit HBV DNA replication through inhibiting the assembly of HBV capsid protein.
# HepG2.2.15 cells were cultured in DMEM/high glucose medium (10% FBS, 400 μg/ml G418) and passaged every 3 days. On the day of experiment, fresh cell culture medium was used to prepare cell suspension, which was cultured with 40,000 cells/well in 96 well plate (Corning, #3599) under 5% carbon dioxide at 37° C. […] The extracted DNA was analyzed by HBV DNA quantitative PCR using Hepatitis B virus nucleic acid quantitative detection kit from Tepp biology, with the method specifically mentioned in the instructions of the kit. The quantitative standard curve was determined in parallel experiment using the own standard sample of the kit. Each sample was converted quantitatively based on the standard curve. […]
# [7] = from PCT/CN2018/097170; cited from earlier work
# Sequence of HBV capsid protein (P03146 whole entry): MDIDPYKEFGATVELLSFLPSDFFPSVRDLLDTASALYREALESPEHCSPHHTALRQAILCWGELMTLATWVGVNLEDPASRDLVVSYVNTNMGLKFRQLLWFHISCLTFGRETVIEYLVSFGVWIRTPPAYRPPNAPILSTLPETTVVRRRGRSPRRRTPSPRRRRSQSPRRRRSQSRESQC
compound,measurement,setting,value
"C[C@H]1Cn2nnc(C(=O)N[C@H](C)C(F)(F)F)c2CN1C(=O)Nc1ccc(F)c(F)c1 [Crystal form A, (S)-N^5-(3,4-difluorophenyl)-6-methyl-N^3-((R)-1,1,1-trifluoropropan-2-yl)-6,7-dihydro-[1,2,3]triazolo[1,5-a]pyrazine-3,5(4H)-dicarbonamide]",hygroscopicity class,[1]; 70% RH,no or little hygroscopicity
same,hygroscopicity class,[1]; 90% RH,"slight hygroscopicity, or no/little hygroscopicity"
same,crystal form after DVS detection (XRPD),[1]; before vs after DVS,remained unchanged
same,desorption process,[1]; humidity change from 0% to 95% RH,consistent with the adsorption process
same,hygroscopic weight gain,"[1]; normal storage condition, 25° C. and 60% RH",about 0.07%
same,Purity %,"[2]; 25° C., 60% RH, 1 month",98.3%
same,Purity %,"[2]; 25° C., 60% RH, 2 months",98.3%
same,Purity %,"[2]; 25° C., 60% RH, 3 months",98.3%
same,Purity %,"[2]; 25° C., 60% RH, 6 months",98.3%
same,Purity %,"[2]; 25° C., 60% RH, start",98.3%
same,Purity %,"[2]; 40° C., 75% RH, 1 month",98.3%
same,Purity %,"[2]; 40° C., 75% RH, 2 months",98.3%
same,Purity %,"[2]; 40° C., 75% RH, 3 months",98.3%
same,Purity %,"[2]; 40° C., 75% RH, 6 months",98.2%
same,Purity %,"[2]; 40° C., 75% RH, start",98.3%
same,physical and chemical stability,"[2]; stored for 6 months, long-term (25° C., 60% RH) and acceleration (40° C., 75% RH)",excellent physical and chemical stability
same,Color and character,"[3]; 4500 Lux, day 5",white solid
same,Purity %,"[3]; 4500 Lux, day 5",98.27%
same,Color and character,"[3]; 4500 Lux, day 10",white solid
same,Purity %,"[3]; 4500 Lux, day 10",98.27%
same,Color and character,"[3]; 4500 Lux, day 30",white solid
same,Crystal form,"[3]; 4500 Lux, day 30",No changed
same,Purity %,"[3]; 4500 Lux, day 30",98.30%
same,Color and character,"[3]; RH 75%, day 5",white solid
same,Purity %,"[3]; RH 75%, day 5",98.26%
same,Weight gain %,"[3]; RH 75%, day 5",2.28%
same,Color and character,"[3]; RH 75%, day 10",white solid
same,Purity %,"[3]; RH 75%, day 10",98.29%
same,Weight gain %,"[3]; RH 75%, day 10",2.72%
same,Color and character,"[3]; RH 75%, day 30",white solid
same,Crystal form,"[3]; RH 75%, day 30",No changed
same,Purity %,"[3]; RH 75%, day 30",98.29%
same,Weight gain %,"[3]; RH 75%, day 30",6.68%
same,Color and character,"[3]; RH 90%, day 5",white solid
same,Purity %,"[3]; RH 90%, day 5",98.26%
same,Weight gain %,"[3]; RH 90%, day 5",2.93%
same,Color and character,"[3]; RH 90%, day 10",white solid
same,Purity %,"[3]; RH 90%, day 10",98.28%
same,Weight gain %,"[3]; RH 90%, day 10",3.19%
same,Color and character,"[3]; RH 90%, day 30",white solid
same,Crystal form,"[3]; RH 90%, day 30",No changed
same,Purity %,"[3]; RH 90%, day 30",98.30%
same,Weight gain %,"[3]; RH 90%, day 30",10.70%
same,Color and character,"[3]; heating 40° C., day 5",white solid
same,Purity %,"[3]; heating 40° C., day 5",98.28%
same,Color and character,"[3]; heating 40° C., day 10",white solid
same,Purity %,"[3]; heating 40° C., day 10",98.31%
same,Color and character,"[3]; heating 40° C., day 30",white solid
same,Crystal form,"[3]; heating 40° C., day 30",No changed
same,Purity %,"[3]; heating 40° C., day 30",98.32%
same,Color and character,"[3]; heating 60° C., day 5",white solid
same,Purity %,"[3]; heating 60° C., day 5",98.26%
same,Color and character,"[3]; heating 60° C., day 10",white solid
same,Purity %,"[3]; heating 60° C., day 10",98.27%
same,Color and character,"[3]; heating 60° C., day 30",white solid
same,Crystal form,"[3]; heating 60° C., day 30",No changed
same,Purity %,"[3]; heating 60° C., day 30",98.30%
same,physical and chemical stability,"[3]; illumination, 40° C., 60° C., high humidity 75% and 90%, storing for 30 days",good physical and chemical stability
same,Color and character,"[3]; start, day 0",white solid
same,Purity %,"[3]; start, day 0",98.30%
"C[C@H]1Cn2nnc(C(=O)N[C@H](C)C(F)(F)F)c2CN1C(=O)Nc1ccc(F)c(F)c1 [Compound B, (S)-N^5-(3,4-difluorophenyl)-6-methyl-N^3-((R)-1,1,1-trifluoropropan-2-yl)-6,7-dihydro-[1,2,3]triazolo[1,5-a]pyrazine-3,5(4H)-dicarbonamide]",inhibitory effect on the normal assembly of HBV capsid protein,HBV capsid protein,obvious inhibitory effect
same,CC50,HepG2 cells [4],> 100000 nM
same,effect on the proliferation inhibition of HepG2 cells in vitro,HepG2 cells [5],no or little effect
same,Emax (maximum inhibitory effect on HBV DNA replication),[6],100%
same,EC50,[6]; read-out: EC50 (inhibition of HBV DNA replication),19 nM
same,bioavailability,[7],high
same,pharmacokinetic absorption,[7],good
